The results in this text go back to US9550739B2, “Molecules having certain pesticidal utilities, and intermediates, compositions, and processes related thereto” (priority 2014, dated 2017).

What all share (format): in vivo
For data set [1], the system named is Beet Armyworm (Spodoptera exigua, LAPHEG) ("BAW"). Kind of data set: Bioassays on Beet Armyworm (BAW), 128-well diet tray assay. Conditions: Spodoptera exigua, 168 h; second instar BAW larvae, 50 μg/cm^2 on artificial diet, five to seven days, 25° C.; read-out: BAW % Control (or Mortality) rating. In a few lines:
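Second-instar larvae, one to five per well, were placed on artificial diet surface-treated with 50 μg/cm^2 compound in 90:10 acetone-water and dried, eight wells per compound. Trays were held at 25° C, 14:10 light-dark, for five to seven days. Percent mortality per well was averaged over the eight wells.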

Data set [2] relates to Cabbage Looper (Trichoplusia ni, TRIPNI) ("CL"). The data set is described as follows: Bioassays on Cabbage Looper (CL), 128-well diet tray assay. Particulars: Trichoplusia ni, 168 h, read-out: CL % Control (or Mortality) rating. The method in brief:
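Second instar larvae (one to five per well) placed on artificial diet treated with 50 μg/cm^2 compound in acetone-water, eight wells per compound. Held at 25° C, 14:10 light-dark for five to seven days; percent mortality averaged across wells.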

For data set [3], the system named is Green Peach Aphid (Myzus persicae, MYZUPE) ("GPA"). The data set is described as follows: Bioassays on Green Peach Aphid (GPA), cabbage seedling foliar spray. Particulars: 72 h, 200 ppm foliar spray on cabbage seedlings, three days, Abbott corrected % control, read-out: GPA % Control (or Mortality) rating. The method, then: Certain molecules disclosed in this document were tested against GPA using procedures described in the following example. In the reporting of the results, the “GPA Rating Table” was used (See Table Section).
Cabbage seedlings grown in 3-inch pots, with 2-3 small (3-5 cm) true leaves, were used as test substrate. The seedlings were infested with 20-50 GPA (wingless adult and nymph stages) one day prior to chemical application. Four pots with individual seedlings were used for each treatment. Test compounds (2 mg) were dissolved in 2 mL of acetone/methanol (1:1) solvent, forming stock solutions of 1000 ppm test compound. The stock solutions were diluted 5× with 0.025% Tween 20 in water to obtain the solution at 200 ppm test compound. A hand-held aspirator-type sprayer was used for spraying a solution to both sides of […] leaves until runoff. Reference plants (solvent check) were sprayed with the diluent only containing 20% by volume of acetone/methanol (1:1) solvent. Treated plants were held in a holding room for three days at approximately 25° C. and ambient relative humidity (RH) prior to grading. Evaluation was conducted by counting the number of live aphids per plant under a microscope. Percent Control was measured by using Abbott's correction formula (W. S. Abbott, “A Method of Computing the Effectiveness of an Insecticide” J. Econ. Entomol. 18 (1925), pp. 265-267) as follows. Corrected % Control=100*(X−Y)/X • where • X=No. of live aphids on solvent check plants and • Y=No. of live aphids on treated plants

In data set [4] the test system is Yellow Fever Mosquito (Aedes aegypti, AEDSAE) ("YFM"). Particulars: about 1 day-old larvae, 4000 ppm master solution diluted, 3 days, room temperature. In a few lines:
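Compounds from 4000 ppm DMSO master plates, diluted in 90:10 water:acetone, dispensed into 96-well plates, six replicates. About 1-day-old larvae added in liver-powder water. Wells covered, held 3 days at room temperature, then scored for mortality.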

Turning to `Cc1cccc(C)c1-c1cccc(C(=O)Nc2ccc(-c3ncn(-c4ccc(OC(F)(F)F)cc4)n3)cc2)c1` [F12, 2′,6′-Dimethyl-N-(4-(1-(4-(trifluoromethoxy)phenyl)-1H-1,2,4-triazol-3-yl)phenyl)-[1,1′-biphenyl]-3-carboxamide], the mortality at 50 µg/cm2 in data set [1] and in data set [2] was 50 to 100% throughout. Also, the mortality at 200 ppm in data set [3] lay in the range of 0 to 80%. The “YFM % Control (or Mortality) rating” value in data set [4] is reported as “A (80-100)”.
For `Cc1c(C(=O)Nc2ccc(-c3ncn(-c4ccc(OC(F)(F)F)cc4)n3)cc2)cccc1-c1ccccc1` [F14, 2-Methyl-N-(4-(1-(4-(trifluoromethoxy)phenyl)-1H-1,2,4-triazol-3-yl)phenyl)-[1,1′-biphenyl]-3-carboxamide], the mortality at 50 µg/cm2 in data set [1] and in data set [2] was 50 to 100% each time. Also, the mortality at 200 ppm in data set [3] was 0 to 80%. Moreover, in data set [4], the “YFM % Control (or Mortality) rating” value was “D (No activity noticed in this bioassay)”.
`O=C(Nc1ccc(-c2ncn(-c3ccc(OC(F)(F)F)cc3)n2)cc1)c1cccc(-c2ccccc2)c1` [F24, N-(4-(1-(4-(trifluoromethoxy)phenyl)-1H-1,2,4-triazol-3-yl)phenyl)-[1,1′-biphenyl]-3-carboxamide]: the mortality at 50 µg/cm2 in data set [1] and in data set [2] was 50 to 100% each time. Also, the mortality at 200 ppm in data set [3] lay in the range of 0 to 80%. In addition, in data set [4], the “YFM % Control (or Mortality) rating” value is recorded as “D (No activity noticed in this bioassay)”.
With `CCOc1ccccc1-c1cccc(C(=O)Nc2ccc(-c3ncn(-c4ccc(OC(F)(F)F)cc4)n3)cc2)c1` [F38, 2′-Ethoxy-N-(4-(1-(4-(trifluoromethoxy)phenyl)-1H-1,2,4-triazol-3-yl)phenyl)-[1,1′-biphenyl]-3-carboxamide], the mortality at 50 µg/cm2 in data set [1] and in data set [2] was 50 to 100% in each case. Also, the mortality at 200 ppm in data set [3] fell in the range of 0 to 80%. Further, the “YFM % Control (or Mortality) rating” value in data set [4] is given as “A (80-100)”.
Take `O=C(NCCc1ccc(-c2ncn(-c3ccc(OC(F)(F)F)cc3)n2)cc1)c1ccc(F)c(-c2ccccc2F)c1` [F55, 2′,6-Difluoro-N-(4-(1-(4-(trifluoromethoxy)phenyl)-1H-1,2,4-triazol-3-yl)phenethyl)-[1,1′-biphenyl]-3-carboxamide]: the mortality at 50 µg/cm2 in data set [1] and in data set [2] was 50 to 100% in each case. Further, the mortality at 200 ppm in data set [3] fell in the range of 0 to 80%. Also, in data set [4], the “YFM % Control (or Mortality) rating” value is recorded as “D (No activity noticed in this bioassay)”.
`O=C(Nc1ccc(-c2ncn(-c3ccc(C(F)(F)F)cc3)n2)cc1)c1ccc(F)c(-c2ccccc2F)c1` [F59, 2′,6-Difluoro-N-(4-(1-(4-(trifluoromethyl)phenyl)-1H-1,2,4-triazol-3-yl)phenyl)-[1,1′-biphenyl]-3-carboxamide]: the mortality at 50 µg/cm2 in data set [1] and in data set [2] was 50 to 100% each time. In addition, the mortality at 200 ppm in data set [3] was found to be 0%. The “YFM % Control (or Mortality) rating” value in data set [4] is on record as “A (80-100)”.
On to `COc1ccccc1-c1cccc(C(=O)Nc2ccc(-c3ncn(-c4ccc(C(F)(F)F)cc4)n3)cc2)c1` [F60, 2′-Methoxy-N-(4-(1-(4-(trifluoromethyl)phenyl)-1H-1,2,4-triazol-3-yl)phenyl)-[1,1′-biphenyl]-3-carboxamide], for which the mortality at 50 µg/cm2 in data set [1] and in data set [2] was 50 to 100% each time. Also, in data set [3], the mortality at 200 ppm lay in the range of 0 to 80%. Also, in data set [4], the “YFM % Control (or Mortality) rating” value is on record as “A (80-100)”.
